Laboratory results from PubChem BioAssay (NCI).
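GI50: concentration for 50% inhibition of growth. Definition used: TGI = concentration required for complete inhibition of growth.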

Key:
Test in all cases: growth of human tumour cells (NCI), 384-well format
[1] = system: SF-539 CNS
[2] = system: NCI-H460 NSCLC
[3] = system: T-47D breast
[4] = system: NCI-H23 lung
[5] = system: HOP-92 NSCLC
[6] = system: NCI-H522 lung
[7] = system: A549 NSCLC
[8] = system: UACC-62 melanoma
[9] = system: SK-MEL-28 melanoma
[10] = system: HT29 colon
[11] = system: RXF 393 renal
[12] = system: SK-MEL-5 melanoma
[13] = system: SF-295 CNS
[14] = system: LOX IMVI melanoma
[15] = system: OVCAR-8 ovarian
[16] = system: SK-OV-3 ovarian
[17] = system: HCT-15 colon
[18] = system: MDA-MB-468 breast
[19] = system: MCF7 breast
[20] = system: TK-10 renal
[21] = system: SR leukemia
[22] = system: PC-3 prostate
[23] = system: CAKI-1 renal
[24] = system: HOP-62 NSCLC
[25] = system: OVCAR-4 ovarian
[26] = system: A498 renal
[27] = system: BT-549 breast
[28] = system: SF-268 CNS
[29] = system: OVCAR-3 ovarian
[30] = system: COLO 205 colon
[31] = system: MDA-MB-435 melanoma
[32] = system: MALME-3M melanoma
[33] = system: IGROV1 ovarian
[34] = system: HCC-2998 colon
[35] = system: NCI/ADR-RES ovarian
[36] = system: RPMI-8226 leukemia
[37] = system: SNB-19 CNS
[38] = system: SW-620 colon
[39] = system: MDA-MB-231 breast
[40] = system: 786-0 renal
[41] = system: HS 578T breast
[42] = system: OVCAR-5 ovarian
[43] = system: CCRF-CEM leukemia
[44] = system: M14 melanoma
[45] = system: K-562 leukemia
[46] = system: SN12C renal
[47] = system: DU-145 prostate
[48] = system: HL-60(TB) leukemia
[49] = system: MOLT-4 leukemia
[50] = system: NCI-H322M lung
[51] = system: ACHN renal
[52] = system: UO-31 renal
[53] = system: KM12 colon
[54] = system: SNB-75 CNS
[55] = system: EKVX NSCLC

For `O=C(NCCCc1cn[nH]c1)c1ccc(-c2ccncc2)c(C#Cc2ccc(F)cc2)c1`, the GI50 [1] was < 0.01 µM, the TGI [1] was < 0.01 µM and the GI50 [2] was < 0.01 µM. The TGI [2] was 0.0135 µM, the GI50 [3] was < 0.01 µM and the TGI [3] was < 0.01 µM. The GI50 [4] was < 0.01 µM, the TGI [4] was < 0.01 µM and the GI50 [5] was < 0.01 µM. For the same compound, the TGI [5] was < 0.01 µM, the GI50 [6] was < 0.01 µM and the TGI [6] was < 0.01 µM. For the same compound, the GI50 [7] was < 0.01 µM, the TGI [7] was < 0.01 µM and the GI50 [8] was < 0.01 µM. For the same compound, the TGI [8] was < 0.01 µM, the GI50 [9] was < 0.01 µM and the TGI [9] was < 0.01 µM. For the same compound, the GI50 [10] was < 0.01 µM, the TGI [10] was < 0.01 µM and the GI50 [11] was < 0.01 µM. For the same compound, the TGI [11] was < 0.01 µM, the GI50 [12] was < 0.01 µM and the TGI [12] was < 0.01 µM. For the same compound, the GI50 [13] was < 0.01 µM, the TGI [13] was < 0.01 µM and the GI50 [14] was < 0.01 µM. The TGI [14] was 0.0156 µM, the GI50 [15] was < 0.01 µM and the TGI [15] was < 0.01 µM. The GI50 [16] was < 0.01 µM, the TGI [16] was < 0.01 µM and the GI50 [17] was < 0.01 µM. The TGI [17] was < 0.01 µM, the GI50 [18] was < 0.01 µM and the TGI [18] was < 0.01 µM. The GI50 [19] was 0.013 µM, the TGI [19] was 0.0269 µM and the GI50 [20] was < 0.01 µM. The TGI [20] was < 0.01 µM, the GI50 [21] was < 0.01 µM and the TGI [21] was < 0.01 µM. For the same compound, the GI50 [22] was < 0.01 µM, the TGI [22] was < 0.01 µM and the GI50 [23] was < 0.01 µM. For the same compound, the TGI [23] was < 0.01 µM, the GI50 [24] was < 0.01 µM and the TGI [24] was < 0.01 µM. For the same compound, the GI50 [25] was < 0.01 µM, the TGI [25] was < 0.01 µM and the GI50 [26] was < 0.01 µM. For the same compound, the TGI [26] was 0.252 µM, the GI50 [27] was < 0.01 µM and the TGI [27] was < 0.01 µM. The GI50 [28] was < 0.01 µM, the TGI [28] was < 0.01 µM and the GI50 [29] was < 0.01 µM. For the same compound, the TGI [29] was < 0.01 µM, the GI50 [30] was < 0.01 µM and the TGI [30] was < 0.01 µM. For the same compound, the GI50 [31] was < 0.01 µM, the TGI [31] was < 0.01 µM and the GI50 [32] was < 0.01 µM. The TGI [32] was < 0.01 µM, the GI50 [33] was < 0.01 µM and the TGI [33] was < 0.01 µM. The GI50 [34] was < 0.01 µM, the TGI [34] was < 0.01 µM and the GI50 [35] was < 0.01 µM. The TGI [35] was < 0.01 µM, the GI50 [36] was < 0.01 µM and the TGI [36] was < 0.01 µM. The GI50 [37] was < 0.01 µM, the TGI [37] was < 0.01 µM and the GI50 [38] was < 0.01 µM. For the same compound, the TGI [38] was < 0.01 µM, the GI50 [39] was < 0.01 µM and the TGI [39] was < 0.01 µM. For the same compound, the GI50 [40] was < 0.01 µM, the TGI [40] was < 0.01 µM and the GI50 [41] was < 0.01 µM. For the same compound, the TGI [41] was < 0.01 µM, the GI50 [42] was < 0.01 µM and the TGI [42] was < 0.01 µM. The GI50 [43] was < 0.01 µM, the TGI [43] was < 0.01 µM and the GI50 [44] was < 0.01 µM. For the same compound, the TGI [44] was < 0.01 µM, the GI50 [45] was < 0.01 µM and the TGI [45] was < 0.01 µM. The GI50 [46] was < 0.01 µM, the TGI [46] was < 0.01 µM and the GI50 [47] was < 0.01 µM. The TGI [47] was < 0.01 µM, the GI50 [48] was < 0.01 µM and the TGI [48] was < 0.01 µM. The GI50 [49] was < 0.01 µM, the TGI [49] was < 0.01 µM and the GI50 [50] was < 0.01 µM. For the same compound, the TGI [50] was < 0.01 µM, the GI50 [51] was < 0.01 µM and the TGI [51] was < 0.01 µM. For the same compound, the GI50 [52] was < 0.01 µM, the TGI [52] was < 0.01 µM and the GI50 [53] was < 0.01 µM. For the same compound, the TGI [53] was < 0.01 µM, the GI50 [54] was < 0.01 µM and the TGI [54] was < 0.01 µM. The GI50 [55] was < 0.01 µM and the TGI [55] was < 0.01 µM.
